Earlier results on three compounds are cited in patent US7208498B2, “Piperidino pyrimidine dipeptidyl peptidase inhibitors for the treatment of diabetes” (Merck & Co., Inc., priority 2002, dated 2007).

The test system of one data set is cardiac allograft. The note with it: rats; Transplantation 63, 1495–1500 (1997).
The subject of a further data set is hematopoiesis. The note with it: mouse, cyclophosphamide-induced neutropenia; WO 99/56753.

For `CC[C@H](C)[C@H](N)C(=O)N1CCC[C@H]1C(=O)N[C@H](C(=O)O)[C@@H](C)CC` [diprotin A], the “degradation of GRF in plasma to GRF[3-44]” value with GRF is listed as “prevented”. For the compound `CC(C)N1CCC(c2ccccc2)(c2ccccc2)CC1` [Prodipine, Pro-Pro-diphenyl-phosphonate], in the data set with cardiac allograft, the cardiac allograft survival result is “double cardiac allograft survival in rats from day 7 to day 14”. Turning to `CC(C)[C@H](N)C(=O)N1CCC[C@H]1B(O)O` [Val-Boro-Pro], the hematopoiesis entry with hematopoiesis is reported as “stimulated hematopoiesis”.
